In patent US9827212B2, “Compositions and methods for treating asthma and other lung diseases” (THE TRUSTEES OF THE UNIVERSITY OF PENNSYLVANIA, priority 2010, dated 2017):
Read-outs that look alike come from different tables or passages of the source.

Experiments:
[1] = test system: naïve mice challenged with methacholine; test: Invasive lung function (FlexiVent), methacholine challenge, naïve mice; type: in vivo; settings: dexamethasone 2.5 mg/kg i.p.
Method: (§1) Lung resistance, compliance, elastance, tissue damping, tissue elastance, and airway resistance were recorded using the FlexiVent system (SCIREQ Scientific Respiratory Equipment Inc). The FlexiVent System Overview is shown in FIG. 1B: FlexiVent is a modular, multi-functional device that performs both mechanical ventilation and detailed measurements of respiratory mechanics in subjects.
(§2) The mice were anesthetized by an I.P. injection of a Ketamine (100 mg/kg) and Xylazine (20 mg/kg) mixture. After anesthesia, a half centimeter incision was made from the rostal to caudal direction; the flap of skin was retracted and the connective tissue was dissected away, and the trachea was exposed. The trachea was then cannulated between the second and third cartilage rings with a blunt-end stub adapter. The cannula was secured with suture. The mice were next connected to the Flexivent system. All spontaneous respirations were stopped with an intramuscular injection of Pancuronium Bromide (3 mg/kg) and the mice were then mechanically ventilated at respiratory rate of 140 beats/per minute with 0.25 ml of tidal volume. The Flexivent system then briefly interrupted the mechanical ventilation to apply a test signal, or perturbation to measure the respiratory mechanics. The respiratory mechanics were then calculated from the data collected while the perturbation was applied. […] At the end of testing the mice were disconnected and processed for multiple organ, blood, and fluid removal. The mice were first exsanguinated through the optical artery. Then bronchoalveolar lavage was performed through the tracheal canula. Finally, the peritoneal and the thoracic cavity were opened, and the lungs were removed for protein and histological processing.

[2] = test system: mice sensitized and challenged with Aspergillus fumigatus (AF); test: Invasive lung function (FlexiVent), methacholine challenge, Aspergillus fumigatus sensitized and challenged mice; type: in vivo; settings: TSA 0.6 mg/kg i.p., dexamethasone 2.5 mg/kg i.p.
Method: (§3) Mice were sensitized by intraperitoneal (I.P.) injections of 20 μg allergen, a protein extract of the ubiquitous, airborn fungus, Aspergillus fumigatus (AF), (Bayer Pharmaceuticals), in 100 μl PBS solution containing 2 mg of alum (Imject Alum, Pierce) on days 0 and 14 and challenged on days 25, 26, and 27 with 30 μl of Af extract in PBS (25 μg) intranasally (i.n.) (FIG. 1).
as §1, §2

RANTES = RANTES secretion from human precision cut lung slices (PCLS); type: cell-based; settings: for inhibition of RANTES secretion from PCLS: TSA 10 μM or budesonide 50 nM 2 h prior
Method: (§4) FIG. 11. […] Secretion of IL-6 and RANTES was analyzed as described under materials and methods. Values shown are mean+/− s.d. from three samples.
(§5) The levels of cytokine secreted into the supernatants of PCLS and bronchoalveolar lavage (BAL) fluid samples were determined by ELISA according to standard protocols as previously described (Banerjee et al. 2008). The cytokine amounts were calculated from the standard curves in each plate. The limits of detection were 5 pg/ml for IL-4 and IL-6 and RANTES standards. Recombinant mouse IL-4 and IL-6 and human RANTES were used as controls.
(§6) Human lung slice preparation. Human PCLS were prepared as previously described (Cooper et al. 2008). Briefly, healthy whole human lungs were received from the NDRI, and the smallest lobe was dissected out and its main bronchus identified. The lobe was inflated using a 2% (wt/vol) low melting point agarose solution. Once the agarose had set, the lobe was sectioned, and cores of 8-mm diameter were made. The cores that contained a small airway by visual inspection were sliced at a thickness of 250 μm (Krumdieck Tissue Slicer; model no. MD4000; Alabama Research and Development) and collected in wells containing supplemented Ham's F-12 medium. Suitable airways (≦1-mm diameter) on slices were selected on the basis of the following criteria: presence of a full smooth muscle wall (i.e., cut perpendicular to direction of airway); presence of beating cilia to eliminate blood vessels; and unshared muscle walls at airway branch points to eliminate possible counteracting contractile forces. […] Adjacent slices containing contiguous segments of the same airway were paired to act as control to the variable tested and incubated at 37° C. on a rotating platform in a humidified air-CO2 (95-5%) incubator. Sections were placed in fresh media every 2-3 h during the remainder of day 1 and all of day 2 to rid the slice and media of agarose and endogenous substances released that could variably confound the production of inflammatory mediators and/or alter airway tone.
(§7) Three airways from each donor were used per condition; n values indicate the number of donors. Data are expressed as means± SEM. Statistical difference was shown by using a nonpaired t test.

[3] = test system: inflammatory cells in bronchoalveolar lavage (BAL) fluid; test: BAL cell count and differential; type: in vivo, mice
Method: as §3
After functional measurements were completed, lungs were lavaged with 1-ml aliquots of sterile saline through the tracheal cannula. After centrifuging (500 g for 10 min at 4° C.) the cell pellet was resuspended in RPMI. Differential cell counts were made from cytospin preparations as described (Elwood et al. 1991). Cells were identified as macrophages, eosinophils, neutrophils, and lymphocytes by standard morphology and at least 300 cells were counted under ×400 magnification. The percentage and absolute numbers of each cell type were then calculated. The supernatants were harvested and stored at −20° C. for further analysis.

IL-4 = IL-4 level in BAL fluid (ELISA); type: in vivo, mice
Method: as §3, §5

IL-6 [4] = test: IL-6 secretion from human precision cut lung slices (PCLS); type: cell-based; settings: for inhibition of IL-6 secretion from PCLS / inhibition at 0.05 µM: TSA 10 μM or budesonide 50 nM 2 h prior; for inhibition at 0.05 µM: Homo sapiens
Method: as §4, §5, §6, §7

IL-6 [5] = test: IL-6 level in BAL fluid (ELISA); type: in vivo, mice
Method: as §3, §5

HDAC = settings: TSA 0.6 mg/kg i.p.
Method: HDAC activity was measured as described previously (Trivedi et al. 2007). […] 50 μg of total extract was incubated with HDAC assay substrate and incubated at 30° C. for 60 min. After the addition of diluted activator reagent, samples were incubated at room temperature for 15 min, and readings were taken by fluorescent microplate reader at an excitation of 360 nm and emission of 450 nm. A standard curve was performed according to the manufacturer's protocol.

[6] = mice sensitized and challenged with Aspergillus
[7] = unsensitized and unchallenged (naïve) mice
[8] = TNFα (10 ng/mL) and IFNγ (10,000 IU/mL) stimulated

Structure (SMILES): C[C@@H]1C[C@H]2[C@@H]3CCC4=CC(=O)C=C[C@]4(C)[C@@]3(F)[C@@H](O)C[C@]2(C)[C@@]1(O)C(=O)CO [dexamethasone]
- Emax of airway (lung) resistance in response to methacholine ([1]; TSA 0.6 mg/kg i.p. in DMSO): 2.3 cmH2O/mL
- dynamic compliance, maximum inhibition by methacholine ([1]; TSA 0.6 mg/kg i.p.): 0.010 mL/cmH2O
- Emax of airway resistance in response to methacholine [2]: 6 cmH2O/mL
- dynamic compliance, maximum inhibition by methacholine [2]: 0.005 mL/cmH2O

Structure (SMILES): CC(/C=C/C(=O)NO)=C\[C@@H](C)C(=O)c1ccc(N(C)C)cc1 [TSA, Trichostatin A]
- dynamic compliance, maximum inhibition by methacholine ([1]; TSA 0.6 mg/kg i.p.): 0.032 mL/cmH2O
- half maximal inhibitory concentration of methacholine on dynamic compliance ([1]; TSA 0.6 mg/kg i.p.): 2.5 mg/mL
- inhibition of RANTES secretion from PCLS (RANTES; TNFα (10 ng/mL) and IFNγ (10,000 IU/mL) induced): 55.1%+/−7.5%
- inhibition of RANTES secretion from PCLS (RANTES; TNFα (10 ng/mL) induced): 50%+/−23%
- basal RANTES secretion from PCLS (RANTES; unstimulated, TSA 10 μM): did not induce basal RANTES secretion
- BAL eosinophil counts ([3]; Aspergillus challenged mice, TSA 0.6 mg/kg i.p., dexamethasone 2.5 mg/kg i.p.): no effect
- total cell counts in BAL ([3]; Aspergillus sensitized and challenged mice, TSA 0.6 mg/kg i.p., dexamethasone 2.5 mg/kg i.p.): no effect
- percentages of inflammatory cells in the BAL ([3]; after allergen sensitization and challenge): little effect
- total cell counts in BAL ([3]; naïve mice, TSA 0.6 mg/kg i.p., dexamethasone 2.5 mg/kg i.p.): no significant difference in cell counts
- BAL macrophages, neutrophils, or lymphocytes ([3]; untreated mice or Aspergillus sensitized and challenged mice): no significant differences
- IL-4 in BAL (IL-4; [6]): little effect on cytokine secretion
- IL-4 in BAL (IL-4; [7]): did not increase
- dynamic compliance, maximum inhibition by methacholine [2]: 0.008 mL/cmH2O
- half maximal effective concentration of methacholine (airway resistance) [2]: 20 mg/mL
- half maximal inhibitory concentration of methacholine on dynamic compliance [2]: 5 mg/mL
- inhibition of IL-6 secretion from PCLS (IL-6 [4]; [8]): 18.8%+/−6.8%
- inhibition of IL-6 secretion from PCLS (IL-6 [4]; TNFα (10 ng/mL) stimulated): 30.2%+/−12.5%
- basal IL-6 secretion from PCLS (IL-6 [4]; unstimulated, TSA 10 μM): little effect on basal IL-6 secretion
- IL-6 in BAL (IL-6 [5]; [6]): little effect on cytokine secretion
- IL-6 in BAL (IL-6 [5]; [7]): did not increase
- HDAC activity in lung tissue (HDAC; [6]): effectively inhibited HDAC activity
- HDAC activity in lung tissue (HDAC; naïve mice): effectively inhibited HDAC activity

Structure (SMILES): CCCC1O[C@@H]2C[C@H]3[C@@H]4CCC5=CC(=O)C=C[C@]5(C)[C@H]4[C@@H](O)C[C@]3(C)[C@]2(C(=O)CO)O1 (some centres unmarked) [budesonide]
- inhibition at 0.05 µM (RANTES; Homo sapiens): 69%
- inhibition at 0.05 µM (IL-6 [4]; [8]): 52.7%
- inhibition at 0.05 µM (IL-6 [4]; TNFα (10 ng/mL) stimulated): 44.4%
